We go through one compound from patent publication US12213966B2, “Methods of reducing plasma level of macrophage migratory inhibitory factor in patients” (priority 2020, dated 2025).

Series [1] concerns migration inhibitory factor (MIF). Nature of the series: Randomized, double-blind, placebo-controlled study in COVID-19 subjects at risk for ARDS: plasma MIF level.
Description: The study consisted of a Screening Phase followed by a Treatment and Follow-up Phase. Following the Screening Phase, if the subject met eligibility criteria, subject was administered treatment with ibudilast or placebo. Subjects received ibudilast 100 mg/d (50 mg b.i.d) or placebo every day for 7 days. Upon completion of the 7-day Treatment Phase, subject was followed-up at Day 14 and at Day 28 post baseline.
The following screening assessments were performed upon signing the ICF: inclusion/exclusion criteria review, physical examination, assess vital signs and O2 use, clinical status using the NIAID scale, ECG, draw blood for plasma cytokines that include: migration inhibitory factor (MIF), interleukin 1-beta (IL-1β), interleukin 6 (IL-6), tumor necrosis factor (TNF-α), and C-reactive protein (CRP). Pharmacokinetic (PK) samples, complete blood count (CBC), comprehensive metabolic panel (CMP), D-dimer, and coagulation tests were also be drawn.
On Day 1 (Baseline) of the Treatment Phase, hospitalized subjects were treated with ibudilast (oral, 50 mg (5 capsules) b.i.d) or placebo for a 7-day period. Subjects underwent study-related procedures including physical examination, vital signs, clinical status assessment using the NIAID scale, O2 use, ECG, blood collection of biomarkers, PK, CBC, CMP, D-dimer and coagulation and information on adverse events and concomitant medications were recorded.
The Follow-up Phase consisted of two visits, Day 14 (±3 d) and Day 28 (±3 d). • Day 14 (in-patient): On Day 14, conducted physical examination, clinical status, vital signs and O2 use, ECG, CBC, CMP, D-dimer, and coagulation tests, biomarkers, AE and conmed review, and recorded survival status. • Day 28 (telephone follow-up if patient was no longer hospitalized) On Day 28, clinical status and survival status were recorded.
The conditions of series [2]: in vivo; cited from earlier work.
The test system of another series is MIF. As to the kind of experiment: Open-label biomarker study in ALS subjects: serum MIF level before and after ibudilast. The conditions noted are these: 19 ALS subjects who completed the study. Type of series: in vivo, human. On the procedure: This was a multi-center, open-label study with a 6 weeks Screening Phase, 36 weeks Treatment Phase, and a Follow-up Phase 4 weeks after the last dose. Ibudilast was orally administered 50 mg b.i.d. for a total daily dose of 100 mg/day.
The objectives of the Study were (i) to measure the impact of ibudilast on [11C]-PBR28 uptake in the motor cortices and brain stem measured by positron emission tomography (PET) imaging at 24 weeks; (ii) to measure the impact of ibudilast on several markers of neuro-inflammation measured by blood biomarkers; and (iii) to evaluate safety and tolerability.
Out of the 46 patients screened, eleven (11) individuals were screen failures. Total of the 35 enrolled subjects were enrolled. Of the 35 enrolled subjects, 16 subjects (45.7%) terminated the study early, and 19 subjects completed the trial. Of these 16 early study withdrawals, 11 (68.8%) were attributed to AEs and 5 (31.2%) were attributed to consent withdrawn.
Serum samples for the 19 subjects who completed the study were evaluated for MIF level before treatment and after treatment with ibudilast. • Mean (SD) pre-treatment serum MIF=422,989 (233,440) pg/ml • Mean (SD) post-treatment serum MIF=300,922 (113,843) pg/ml • Mean (SE) change/month=−19, 845 (8934) pg/ml (p=0.03)

Setting [3] is: COVID-19 subject A, ibudilast oral 50 mg b.i.d. for 7 days.
[4] abbreviates: COVID-19 subject B, ibudilast oral 50 mg b.i.d. for 7 days.
Setting [5] is: COVID-19 subject C, ibudilast oral 50 mg b.i.d. for 7 days.
The mark [6] stands for this setting: COVID-19 subject D, ibudilast oral 50 mg b.i.d. for 7 days.
[7] abbreviates: mean of 4 COVID-19 subjects, ibudilast oral 50 mg b.i.d. for 7 days.

As for `CC(C)C(=O)c1c(C(C)C)nn2ccccc12` [ibudilast, 2-methyl-1-(2-(1-methylethyl)pyrazolo(1,5-a)pyridin-3-yl)1-propanone], the “Difference of mean change of MIF level between ibudilast-treated group and placebo group” value in series [1] (4 ibudilast vs 4 placebo COVID-19 subjects, p value=0.00552) worked out at 17277 pg/mL. Besides, the “Plasma MIF level pre-treatment, Subject A” value in series [1] (COVID-19 subject A, ibudilast-treated group, before treatment) worked out at 25267 pg/mL. Further, in series [1] (setting [3]), the “Plasma MIF level difference (post minus pre), Subject A” value is -11130 pg/mL and the “Plasma MIF level post-treatment, Subject A” value was 14137 pg/mL. Further, the “Plasma MIF level pre-treatment, Subject B” value in series [1] (COVID-19 subject B, ibudilast-treated group, before treatment) was found to be 21130 pg/mL. Further, in series [1] (setting [4]), the “Plasma MIF level difference (post minus pre), Subject B” value was -1497 pg/mL and the “Plasma MIF level post-treatment, Subject B” value came to 19633 pg/mL. The “Plasma MIF level pre-treatment, Subject C” value in series [1] (COVID-19 subject C, ibudilast-treated group, before treatment) worked out at 17763 pg/mL. In series [1] (setting [5]), the “Plasma MIF level difference (post minus pre), Subject C” value was -12037 pg/mL and the “Plasma MIF level post-treatment, Subject C” value was 5726 pg/mL. In series [1] (COVID-19 subject D, ibudilast-treated group, before treatment), the “Plasma MIF level pre-treatment, Subject D” value is listed as 27005 pg/mL. In addition, in series [1] (setting [6]), the “Plasma MIF level difference (post minus pre), Subject D” value was -18433 pg/mL and the “Plasma MIF level post-treatment, Subject D” value came out at 8572 pg/mL. Further, in series [1] (mean of 4 COVID-19 subjects, ibudilast-treated group, before treatment), the “Mean pre-treatment plasma MIF level” value was 22791.3 pg/mL. Further, in series [1] (setting [7]), the “Mean change MIF level” value is -110774.3 pg/mL and the “Mean post-treatment plasma MIF level” value is given as 12017 pg/mL. In series [1] (mean of 4 COVID-19 subjects, ibudilast oral 50 mg b.i.d. for 7 days, listed as Ibudilast), the “Mean change MIF level” value is -10774.3 pg/mL. The CNS penetration result in series [2] is listed as “good CNS penetration”. Moreover, in the series with MIF (after ibudilast oral 50 mg b.i.d. (100 mg/day), 36 weeks Treatment Phase), the “Mean (SD) post-treatment serum MIF” value was 300,922 (113,843) pg/ml. The “Mean (SD) pre-treatment serum MIF” value in the series with MIF (before treatment) is given as 422,989 (233,440) pg/ml.
